From patent US7531344B2, “Induction and stabilization of enzymatic activity in microorganisms” (Georgia State University Research Foundation, Inc., priority 2006, dated 2009)

Experiments:
[1] = tested on: asparaginase I; test: Effect of media composition and inducer on asparaginase I, Example 10; assay type: cell-based, Rhodococcus sp. DAP 96253; settings: for effect of medium additive on asparaginase I activity: maltose added to YEMEA, Cobalt 5-50 ppm with glucose or maltose; for Asparaginase I levels / ability to induce asparaginase I activity: inducer 1000 ppm
From the text: (§1) In certain embodiments, activity can be referred to in terms of “units” per mass of enzyme or cells (typically based on the dry weight of the cells, e.g., units/mg cdw). A “unit” generally refers to the ability to convert a specific content of a compound to a different compound under a defined set of conditions as a function of time. In specific embodiments, 1 “unit” of nitrile hydratase activity can relate to the ability to convert 1 μmol of acrylonitrile to its corresponding amide per minute, per milligram of cells (dry weight) at a of pH 7.0 and a temperature of 30° C. Similarly, 1 unit of amidase activity can relate to the ability to convert 1 μmol of acrylamide to its corresponding acid per minute, per milligram of cells (dry weight) at a pH of 7.0 and a temperature of 30° C. Further, 1 unit of asparaginase I activity can relate to the ability to convert 1 μmol of asparagine to its corresponding acid per minute, per milligram of cells (dry weight) at a pH of 7.0 and a temperature of 30° C.
Testing was performed to evaluate the effect on asparaginase I activity based upon the inducer used. In particular, testing was performed using asparagine, glutamine, succinonitrile, and isovaleronitrile as inducers (all added at 1000 ppm each).

[2] = tested on: amidase; test: Amidase induction by inducers, Example 1; assay type: cell-based, Rhodococcus sp., strain DAP 96253; settings: for amidase activity greater than the amidase activity resulting from the use of acrylonitrile: relative to acrylonitrile induction, Table 1
From the text: as §1
(§2) The induction of nitrile hydratase activity and amidase activity in Rhodococcus sp., strain DAP 96253, was evaluated using multiple types of inducers (1000 ppm). Three different samples were cultured in YEMEA medium containing 10 ppm cobalt and 7.5 g/L urea and supplemented with acrylonitrile, asparagine, or glutamine. The specific nitrile hydratase activity and the specific amidase activity in each sample was evaluated, and the results are provided below in Table 1, with activities provided in units/mg cdw (cell dry weight). One unit of nitrile hydratase activity relates to the ability to convert 1 μmol of acrylonitrile to its corresponding amide per minute, per milligram of cells (dry weight) at a of pH 7.0 and a temperature of 30° C. One unit of amidase activity relates to the ability to convert 1 μmol of acrylamide to its corresponding acid per minute, per milligram of cells (dry weight) pH of 7.0 and a temperature of 30° C.

[3] = tested on: nitrile hydratase; test: Nitrile hydratase induction by inducers, Example 1; assay type: cell-based, Rhodococcus sp., strain DAP 96253; settings: for nitrile hydratase induction compared with acrylonitrile: Table 1 comparison
From the text: as §1, §2

[4] = tested on: asparaginase I; test: Asparaginase I production, Example 8; assay type: cell-based; settings: asparagine and glutamine 3.8 mM
From the text: as §1
The induction of asparaginase I production in various nitrile hydratase producing microorganisms was evaluated. All strains were grown on YEMEA medium containing 7.5 g/L of urea and 10 ppm cobalt (provided as cobalt chloride) supplemented with asparagine (ASN), glutamine (GLN), or both asparagine and glutamine. The asparagine and glutamine were added 3.8 mM. As a comparative, enzyme production was also evaluated with supplementation was with acrylonitrile (AN), acrylamide (AMD) or acrylonitrile and acrylamide. Growth temperature was in the range of 26° C. to 30° C.

[5] = tested on: amidase; test: 20 liter fermentation with asparagine feed: amidase; assay type: cell-based, Rhodococcus sp. DAP 96253; settings: asparagine 0.15M at 1000 μl/min from t=10 h
Experimental: (§3) Rhodococcus sp. DAP 96253 were grown using biphasic medium as the source of inoculum for a 20 liter fermentation. The supplemental addition of medium/carbohydrate (either YEMEA, dextrose or maltose) was made to the modified R2A medium, containing cottonseed hydrolysate substituted for the Proteos Peptone 3 (PP3). Asparagine (0.15M solution) was added at a continuous rate of 1000 μl/min beginning at t=10 h. At the end of the fermentation run, 159 units per milligram cell dry weight of acrylonitrile specific nitrile hydratase, 22 units of amidase per milligram cell dry weight, and 16 g/l cell packed wet weight were produced.

[6] = tested on: acrylonitrile specific nitrile hydratase; test: 20 liter fermentation with asparagine feed: nitrile hydratase; assay type: cell-based, Rhodococcus sp. DAP 96253; settings: asparagine 0.15M at 1000 μl/min from t=10 h
Experimental: as §3

[7] = tested on: asparaginase I; test: 20 liter fermentation with asparagine feed: asparaginase I; assay type: cell-based, Rhodococcus sp. DAP 96253; settings: asparagine 0.15M at 1000 μl/min from t=10 h
Experimental: as §3

[8] = tested on: amidase; test: Amidase production, Example 7; assay type: cell-based; settings: Pseudomonas chloroaphis ATCC 43051; 30 °C; supplement 3.8 mM
Experimental: (§4) In certain embodiments, activity can be referred to in terms of “units” per mass of enzyme or cells (typically based on the dry weight of the cells, e.g., units/mg cdw). A “unit” generally refers to the ability to convert a specific content of a compound to a different compound under a defined set of conditions as a function of time. […] The induction of nitrile hydratase production and amidase production in various nitrile hydratase producing microorganisms was evaluated. […] The asparagine and glutamine were added 3.8 mM. As a comparative, enzyme production with no supplementation was also tested. Growth temperature was in the range of 26° C. to 30° C.

[9] = tested on: nitrile hydratase; test: Nitrile hydratase production, Example 7; assay type: cell-based; settings: Pseudomonas chloroaphis ATCC 43051; 30 °C; supplement 3.8 mM
Experimental: as §4

[10] = Rhodococcus sp. DAP 96253, YEMEA, 10 ppm cobalt, 7.5 g/L urea, inducer 1000 ppm
[11] = YEMEA - Glucose, Without Cobalt
[12] = YEMEA - Maltose, Without Cobalt

Which “effect of medium additive on asparaginase I activity” value [1] does the source give for OC[C@H]1O[C@H](O[C@H]2[C@H](O)[C@@H](O)C(O)O[C@@H]2CO)[C@H](O)[C@@H](O)[C@@H]1O (mixture of isomers) [maltose] here?
Its value is “Higher asparaginase I activity”.

Which “Amidase Activity” value [2, 10] does the source give for C=CC#N [Acrylonitrile, acrylonitrile] here?
The value was 7.59 Units/mg cdw.

And the “Nitrile Hydratase Activity” value [3, 10]?
Its value is 162.23 Units/mg cdw.

And the “Asparaginase I Level Based on Growth Medium Supplementation” value (“Asparaginase I Level Based” for short) ([4]; Brevibacterium ketoglutaricum ATCC 21533, 30 °C)?
The value was 14.6 Units/mg cdw.

And the “Asparaginase I Level Based” value ([4]; Pseudomonas chloroaphis ATCC 13985, 26 °C)?
The value was 2 Units/mg cdw.

And the “Asparaginase I Level Based” value ([4]; Rhodococcus rhodochrous DAP 96622 (ATCC 55898), 26 °C)?
Its value is 8.2 Units/mg cdw.

What about the “Asparaginase I Level Based” value ([4]; Rhodococcus sp. DAP 96253 (ATCC 55899), 30 °C) of the same compound?
Its value is 7.8 Units/mg cdw.

For NC(=O)C[C@H](N)C(=O)O [Asparagine, asparagine], which “amidase produced at end of fermentation” value [5] is on record?
Its value is 22 units per milligram cell dry weight.

What about the “amidase activity greater than the amidase activity resulting from the use of acrylonitrile” value [2] of the same compound?
The value was “approximately 74%”.

And the “nitrile hydratase induction compared with acrylonitrile” value [3]?
The value was “exceeds the ability of acrylonitrile to induce such activity”.

And the “acrylonitrile specific nitrile hydratase produced at end of fermentation” value [6]?
The value was 159 units per milligram cell dry weight.

And the “Asparaginase I levels” value ([1]; YEMEA - Glucose, With Cobalt)?
Its value is 6.5 units/mg cell dry weight.

What about the “Asparaginase I levels” value [1, 11] of the same compound?
Its value is 5.3 units/mg cell dry weight.

And the “Asparaginase I levels” value [1, 12]?
Its value is 8.7 units/mg cell dry weight.

And the “asparaginase I produced at end of fermentation” value [7]?
The value was 16 units per milligram cell dry weight.

How did the “effect of medium additive on asparaginase I activity” value [1] turn out when [Co] [Cobalt] was run?
The value was “resulted in improvements”.

Which “amidase activity greater than the amidase activity resulting from the use of acrylonitrile” value [2] does the source give for NC(=O)CC[C@H](N)C(=O)O [Glutamine, glutamine] here?
The value was “approximately 37%”.

And the “nitrile hydratase induction compared with acrylonitrile” value [3]?
The value was “exceeds the ability of acrylonitrile to induce such activity”.

And the “Amidase Level Based on Growth Medium Supplementation” value [8]?
The value was “No”.

What about the “Nitrile Hydratase Level Based on Growth Medium Supplementation” value [9] of the same compound?
Its value is “No”.

And the “Asparaginase I levels” value ([1]; YEMEA - Glucose, With Cobalt)?
The value was 1.9 units/mg cell dry weight.

What about the “Asparaginase I levels” value [1, 11] of the same compound?
The value was 1.5 units/mg cell dry weight.

And the “Asparaginase I levels” value ([1]; YEMEA - Maltose, With Cobalt)?
Its value is 8.1 units/mg cell dry weight.

And the “Asparaginase I levels” value [1, 12]?
The value was 9.3 units/mg cell dry weight.

What about the “ability to induce asparaginase I activity” value [1] of the same compound?
Its value is “showed an ability to induce asparaginase I activity”.

What about the “Asparaginase I Level Based” value ([4]; Pseudomonas chloroaphis ATCC 43051, 30 °C) of the same compound?
Its value is “No”.

For CC(C)CC#N [Isovaleronitrile, isovaleronitrile, reference compound], which “Asparaginase I levels” value ([1]; YEMEA - Glucose, With Cobalt) is on record?
The value was 2.9 units/mg cell dry weight.

What about the “Asparaginase I levels” value [1, 11] of the same compound?
Its value is 3.5 units/mg cell dry weight.

And the “Asparaginase I levels” value ([1]; YEMEA - Maltose, With Cobalt)?
The value was 7.0 units/mg cell dry weight.

What about the “Asparaginase I levels” value [1, 12] of the same compound?
Its value is 6.8 units/mg cell dry weight.

With N#CCCC#N [Succinonitrile, succinonitrile, reference compound] as the compound, how does the “Asparaginase I levels” value ([1]; YEMEA - Glucose, With Cobalt) read?
The value was 8.5 units/mg cell dry weight.

And the “Asparaginase I levels” value [1, 11]?
Its value is 6.5 units/mg cell dry weight.

And the “Asparaginase I levels” value ([1]; YEMEA - Maltose, With Cobalt)?
Its value is 10.0 units/mg cell dry weight.

And the “Asparaginase I levels” value [1, 12]?
The value was 11.0 units/mg cell dry weight.

What about the “ability to induce asparaginase I activity” value [1] of the same compound?
The value was “showed an ability to induce asparaginase I activity”.
